Experimental findings from ChEMBL document CHEMBL1131680, “Structure-based design of diaminopyranosides as a novel inhibitor core unit of HIV proteases” (Bioorg Med Chem Lett, 1999) are described below.

One may read the IC50 as the concentration needed to halve the response being measured.

This experiment addresses Human immunodeficiency virus type 1 protease (Human immunodeficiency virus 1, UniProt Q72874). Put plainly: Inhibitory concentration required to inhibit hydrolytic activity of recombinant HIV-1 PR (human immunodeficiency virus protease).

`[N-]=[N+]=NC1C(N)C(OCc2ccccc2)OC(CO)C1OCc1ccccc1` (stereo not drawn): the half-inhibitory concentration (IC50) was greater than 1 µM.
With `NC1C(OCc2ccccc2)OC(CO)C(OCc2ccccc2)C1N` (stereo not drawn), the IC50 worked out at 205 µM.
In the case of `NC1C(OCc2ccccc2)OC(COC(=O)Nc2ccccc2)C(OCc2ccccc2)C1N` (stereo not drawn), the IC50 came to 28 µM.
